Results reported in PMC6272192, “Synthesis and Biological Evaluation of N-Alkyl-3-(alkylamino)-pyrazine-2-carboxamides” (Molecules, 2015).
Converted amounts (≈) assume the structure as drawn. Like-named read-outs stand apart in the source and are kept apart here.

Legend:
[1] = determination of lipophilicity by HPLC (log k); settings: HPLC capacity factor, C18 column, MeOH 70% / H2O 30%
Description: Instrumentation: Agilent Technologies 1200 SL liquid chromatograph with Diode-array Detector SL G1315C (Agilent Technologies Inc., Colorado Springs, CO, USA); pre-column ZORBAX XDB-C18 5 μm, 4 × 4 mm, Part No. 7995118-504 (Agilent Technologies Inc.) and column ZORBAX Eclipse XDB-C18 5 μm, 4.6 × 250 mm, Part No. 7995118-585 (Agilent Technologies Inc.). The separation process was controlled by Agilent ChemStation, version B.04.02 extended by spectral module (Agilent Technologies Inc.). Mobile phase consisted of MeOH (HPLC grade, 70%) and H2O (HPLC-Milli-Q Grade, 30%). Conditions: Flow rate 1.0 mL/min, sample injection volume 20 μL, column temperature 30 °C, detection wavelength 210 nm, monitor wavelength 270 nm. Retention times (tR) were measured in minutes. The dead time of the system (tD) was determined as the retention time of KI methanol solution. Capacity factors k for individual compounds were calculated according to the formula k = (tR − tD)/tD. Log k, calculated from the capacity factor k, is used as the lipophilicity index converted to log scale.

[2] = system: M. tuberculosis H37Rv; test: in vitro antimycobacterial activity, microdilution panel method; type: cell-based, Mycobacterium tuberculosis; settings: for MIC: Mycobacterium tuberculosis
[3] = system: photosystem 2 photosynthetic electron transport (PET) in spinach chloroplasts; test: inhibition of photosynthetic electron transport (PET) in spinach chloroplasts (Hill reaction, DCPIP); type: biochemical, Spinacia oleracea L.; settings: for PET-inhibiting activity (in words) / IC50: spinach chloroplasts
Description: Chloroplasts were prepared from spinach (Spinacia oleracea L.) according to Masarovicova and Kralova. The inhibition of photosynthetic electron transport (PET) in spinach chloroplasts was determined spectrophotometrically (Genesys 6, Thermo Electron Scientific Instruments, Madison, WI, USA), using an artificial electron acceptor 2,6-dichlorophenol-indophenol (DCPIP) according to Kralova et al., and the rate of photosynthetic electron transport (PET) was monitored as a photoreduction of DCPIP. The measurements were carried out in phosphate buffer (0.02 mol/L, pH 7.2) containing sucrose (0.4 mol/L), MgCl2 (0.005 mol/L) and NaCl (0.015 mol/L). The chlorophyll content was 30 mg/L in these experiments and the samples were irradiated (~100 W/m^2 with 10 cm distance) with a halogen lamp (250 W) using a 4 cm water filter to prevent warming of the samples (suspension temperature 22 °C). The studied compounds were dissolved in DMSO due to their limited water solubility. […] The inhibitory efficiency of the studied compounds was expressed by IC50 values, i.e., by molar concentration of the compounds causing 50% PET inhibition relative to the untreated control.

[4] = system: Trichophyton mentagrophytes; test: in vitro antifungal activity, microdilution broth method; type: cell-based; settings: for MIC: Trichophyton mentagrophytes
Description: Antifungal evaluation was performed using microdilution broth method against 8 fungal strains (Candida albicans ATCC 44859, C. tropicalis 156, C. krusei E28, C. glabrata 20/I, Trichosporon asahii 1188, Aspergillus fumigates 231, Absidia corymbifera 272 and Trichophyton mentagrophytes 445). Compounds were dissolved in DMSO and diluted in a twofold manner with RPMI 1640 medium with glutamine buffered to pH 7.0 (3-morpholinopropane-1-sulfonic acid). […] Static incubation was performed in the dark and humid, at 35 °C for 24 and 48 h (respectively 72 and 120 h for Trichophyton mentagrophytes). The MIC was defined as 80% inhibition of control (50% IC for filament fungi). Drug-free controls were included. The standards were amphotericin B, voriconazole, nystatin and fluconazole.

[5] = system: photosystem 2 photosynthetic electron transport (PET) in spinach chloroplasts; design: method as in doi:10.3139/113.110079; settings: literature surfactants; read-out: IC50 related to PET inhibition; cited from earlier work
[6] = system: Staphylococcus epidermidis; test: in vitro antibacterial activity, microdilution broth method; type: cell-based
Description: Microdilution broth method. Antibacterial evaluation was performed against bacterial strains from Czech Collection of Microorganisms (Brno, Czech Republic) (Staphylococcus aureus CCM 4516/08, Escherichia coli CCM 4517, Pseudomonas aeruginosa CCM 1961) or clinical isolates from Department of Clinical Microbiology, University Hospital and Faculty of Medicine in Hradec Králové, Charles University in Prague, Czech Republic (Staphylococcus aureus H 5996/08-methicilin resistant (MRSA), Staphylococcus epidermidis H 6966/08, Enterococcus sp. J 14365/08, Klebsiella pneumoniae D 11750/08, Klebsiella pneumoniae J 14368/08-ESBL positive). All strains were subcultured on Mueller-Hinton agar (MHA) (Difco/Becton Dickinson, Detroit, MI, USA) at 35 °C and maintained on the same medium at 4 °C. The compounds were dissolved in DMSO, and the antibacterial activity was determined in Mueller-Hinton liquid broth (Difco/Becton Dickinson), buffered to pH 7.0. Controls consisted of medium and DMSO alone. […] The standards were neomycin, bacitracin, penicillin G, ciprofloxacin and phenoxymethylpenicilin.

[7] = system: Vero cells; test: in vitro cytotoxicity assay (MCC); type: cell-based, African Green Monkey; settings: highest tested concentration 100 µmol/L
[8] = system: M. tuberculosis H37Rv; settings: previously prepared 3-alkylaminopyrazine-2-carboxamides; cited from earlier work
[9] = 336 h, Middlebrook 7H9, Alamar Blue after 14 days, read-out: MIC M. tuberculosis
[10] = DCPIP photoreduction, read-out: IC50 (PET-inhibiting activity)
[11] = Middlebrook 7H9, Alamar Blue after 14 days

SMILES | log k [1] | MIC [2, 9] [µg/mL] | IC50 [3, 10] [µM] | other results
CCNC(=O)c1nccnc1NCC [Compound 18, N-Ethyl-3-(ethylamino)pyrazine-2-carboxamide] | 0.163 | > 100 | – | PET-inhibiting activity (in words) [3]: not active
CN(C)C(=O)Nc1ccc(Cl)c(Cl)c1 [DCMU, 3-(3,4-dichlorophenyl)-1,1-dimethylurea, reference compound] | – | – | 2 | IC50 ([3]; read-out: IC50 (PET inhibition, Hill reaction)): ~1.9 µM
CCCCNC(=O)c1nccnc1NCCCC [Compound 26, N-Butyl-3-(butylamino)pyrazine-2-carboxamide] | 1.077 | 50 | 202 | –
CCCCCCNC(=O)c1nccnc1Cl [Compound 6, 3-Chloro-N-hexylpyrazine-2-carboxamide] | 0.239 | 100 | 1070 | MIC [4]: 250 µM (≈ 60.4 µg/mL)
CCNc1nccnc1C(=O)NC [Compound 10, 3-(Ethylamino)-N-methylpyrazine-2-carboxamide] | −0.052 | > 100 | – | –
CN(C)CCNC(=O)C(=O)NCCN(C)C [N,N'-bis(2-dimethylaminoethyl)ethanediamide] | – | – | – | IC50 [5]: 4000 µM
CNC(=O)c1nccnc1NC [Compound 9, N-Methyl-3-(methylamino)pyrazine-2-carboxamide] | −0.279 | > 100 | 5650 | –
CCCCCCCNc1nccnc1C(=O)NCC [Compound 23, N-Ethyl-3-(heptylamino)pyrazine-2-carboxamide] | 1.337 | 50 | 48 | MIC [4]: 125 µM (≈ 33 µg/mL); MIC [6]: 250 µM (≈ 66.1 µg/mL)
CCCCCCCCC[N+](C)(C)CCNC(=O)CCC(=O)NCC[N+](C)(C)CCCCCCCCC [3,8-diaza-4,7-dioxodecane-1,10-diylbis(nonyldimethyl)ammonium bromide] | – | – | – | IC50 [5]: 1740 µM
CCCCNc1nccnc1C(=O)NCC [Compound 20, 3-(Butylamino)-N-ethylpyrazine-2-carboxamide] | 0.617 | > 100 | 1090 | –
CCCCCCCCNC(=O)c1nccnc1NCCCCCCCC [Compound 30, N-Octyl-3-(octylamino)pyrazine-2-carboxamide] | 2.981 | > 100 | 752 | minimum compound concentration (MCC) causing microscopically detectable alteration of normal cell morphology [7]: 100 µmol/L
CCCCCCCCNc1nccnc1C(N)=O [3-octylaminopyrazine-2-carboxamide] | – | – | – | MIC [8]: 50 µg/mL (≈ 200 µM)
CCNC(=O)c1nccnc1NC [Compound 17, N-Ethyl-3-(methylamino)pyrazine-2-carboxamide] | −0.063 | > 100 | – | PET-inhibiting activity (in words) [3]: not active
CCCCCCCNC(=O)c1nccnc1NCCCCCCC [Compound 29, N-Heptyl-3-(heptylamino)pyrazine-2-carboxamide] | 2.503 | > 100 | 1120 | –
CNC(=O)c1nccnc1Cl [Compound 1, 3-Chloro-N-methylpyrazine-2-carboxamide] | −0.747 | > 100 | – | PET-inhibiting activity (in words) [3]: inactive
CCCCNC(=O)c1nccnc1Cl [Compound 4, N-Butyl-3-chloropyrazine-2-carboxamide] | −0.209 | > 100 | 4010 | –
CCCNC(=O)c1nccnc1NCCC [Compound 25, N-Propyl-3-(propylamino)pyrazine-2-carboxamide] | 0.600 | > 100 | 1300 | –

SMILES | log k [1] | MIC [2, 9] [µg/mL] | IC50 [3, 10] [µM] | other results
NNC(=O)c1ccncc1 [INH, Isoniazid, reference compound] | – | 0.1 to 0.39 | – | MIC M. tuberculosis [2, 11]: 0.1 to 0.39 µg/mL; MIC ([2]; conversion of the μg/mL value, read-out: MIC M. tuberculosis in molar units): 0.7 to 2.9 µM
CCCCCCNc1nccnc1C(N)=O [3-hexylamino-] | – | – | – | MIC [8]: 50 µg/mL (≈ 225 µM)
CCCCCCCNc1nccnc1C(N)=O [3-heptyamino-] | – | – | – | MIC [8]: 50 µg/mL (≈ 212 µM)
CCCNC(=O)c1nccnc1Cl [Compound 3, 3-Chloro-N-propylpyrazine-2-carboxamide] | −0.414 | > 100 | – | PET-inhibiting activity (in words) [3]: inactive
CCCCCNc1nccnc1C(=O)NCC [Compound 21, N-Ethyl-3-(pentylamino)pyrazine-2-carboxamide] | 0.855 | 50 | 301 | MIC M. tuberculosis [2, 11]: 50 µg/mL (≈ 212 µM); MIC [4]: 250 µM (≈ 59.1 µg/mL); IC50 (PET) fold higher than that of compound 14 ([3]; ratio to IC50 of 14): 2.4 fold
CCCCCCCCNC(=O)c1nccnc1Cl [Compound 8, 3-Chloro-N-octylpyrazine-2-carboxamide] | 0.702 | 50 | 55 | MIC Trichophyton mentagrophytes [4]: 62.5 µM (≈ 16.9 µg/mL); MIC [4]: 62.5 µM (≈ 16.9 µg/mL)
CCCCCNC(=O)c1nccnc1Cl [Compound 5, 3-Chloro-N-pentylpyrazine-2-carboxamide] | 0.012 | > 100 | 1390 | –
CCCCCCCNc1nccnc1C(=O)NC [Compound 15, 3-(Heptylamino)-N-methylpyrazine-2-carboxamide] | 1.118 | 25 | 65 | MIC [4]: 125 µM (≈ 31.3 µg/mL); MIC [6]: 250 µM (≈ 62.6 µg/mL)
CCCCCCNc1nccnc1C(=O)NC [Compound 14, 3-(Hexylamino)-N-methylpyrazine-2-carboxamide] | 0.876 | 25 | 125 | MIC M. tuberculosis [2, 11]: 25 µg/mL (≈ 106 µM); MIC [4]: 250 µM (≈ 59.1 µg/mL)
CCCCNc1nccnc1C(=O)NC [Compound 12, 3-(Butylamino)-N-methylpyrazine-2-carboxamide] | 0.401 | 100 | 523 | –
CCCCCCNC(=O)c1nccnc1NCCCCCC [Compound 28, N-Hexyl-3-(hexylamino)pyrazine-2-carboxamide] | 2.041 | > 100 | 272 | minimum compound concentration (MCC) causing microscopically detectable alteration of normal cell morphology [7]: > 4 µmol/L
CCNC(=O)c1nccnc1Cl [Compound 2, 3-Chloro-N-ethylpyrazine-2-carboxamide] | −0.591 | > 100 | – | PET-inhibiting activity (in words) [3]: inactive
CCCCCNc1nccnc1C(=O)NC [Compound 13, N-Methyl-3-(pentylamino)pyrazine-2-carboxamide] | 0.638 | 50 | 544 | MIC [4]: 250 µM (≈ 55.6 µg/mL)
CCCCCCNc1nccnc1C(=O)NCC [Compound 22, N-Ethyl-3-(hexylamino)pyrazine-2-carboxamide] | 1.094 | 50 | 78 | MIC [4]: 125 µM (≈ 31.3 µg/mL)
CCCNc1nccnc1C(=O)NCC [Compound 19, N-Ethyl-3-(propylamino)pyrazine-2-carboxamide] | 0.382 | > 100 | 2050 | MIC [6]: 250 µM (≈ 52.1 µg/mL); IC50 (PET) fold higher than that of compound 12 ([3]; ratio to IC50 of 12): 3.9 fold
CCCCCCCNC(=O)c1nccnc1Cl [Compound 7, 3-Chloro-N-heptylpyrazine-2-carboxamide] | 0.470 | 100 | 256 | MIC [4]: 125 µM (≈ 32 µg/mL)
CCCNc1nccnc1C(=O)NC [Compound 11, N-Methyl-3-(propylamino)pyrazine-2-carboxamide] | 0.166 | > 100 | – | –
